{"source": "PubChem BioAssay (NCI)", "test_in_all_cases": "DTP human tumour cell line panel, 384-well format", "key": {"ACHN renal": {"system": "ACHN renal"}, "SW-620 colon": {"system": "SW-620 colon"}, "BT-549 breast": {"system": "BT-549 breast"}, "SK-OV-3 ovarian": {"system": "SK-OV-3 ovarian"}, "HOP-92 NSCLC": {"system": "HOP-92 NSCLC"}, "SN12C renal": {"system": "SN12C renal"}, "MDA-MB-231 breast": {"system": "MDA-MB-231 breast"}, "MALME-3M melanoma": {"system": "MALME-3M melanoma"}, "A549 NSCLC": {"system": "A549 NSCLC"}, "T-47D breast": {"system": "T-47D breast"}, "MDA-MB-435 melanoma": {"system": "MDA-MB-435 melanoma"}, "HL-60(TB) leukemia": {"system": "HL-60(TB) leukemia"}, "RPMI-8226 leukemia": {"system": "RPMI-8226 leukemia"}, "SK-MEL-28 melanoma": {"system": "SK-MEL-28 melanoma"}, "HT29 colon": {"system": "HT29 colon"}, "HCT-116 colon": {"system": "HCT-116 colon"}, "MCF7 breast": {"system": "MCF7 breast"}, "SNB-75 CNS": {"system": "SNB-75 CNS"}, "A498 renal": {"system": "A498 renal"}, "LOX IMVI melanoma": {"system": "LOX IMVI melanoma"}, "MDA-MB-468 breast": {"system": "MDA-MB-468 breast"}, "HCT-15 colon": {"system": "HCT-15 colon"}, "SF-295 CNS": {"system": "SF-295 CNS"}, "OVCAR-3 ovarian": {"system": "OVCAR-3 ovarian"}, "HOP-62 NSCLC": {"system": "HOP-62 NSCLC"}, "U251 glioblastoma": {"system": "U251 glioblastoma"}, "OVCAR-8 ovarian": {"system": "OVCAR-8 ovarian"}, "DU-145 prostate": {"system": "DU-145 prostate"}}, "note": "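GI50 = concentration required for 50% inhibition of growth. TGI denotes the concentration required for complete inhibition of growth.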"}
{"molecule": "COc1cc([C@@H]2c3cc4c(cc3[C@@H](OC3OC5CO[C@@H](c6cccs6)OC5C(O)C3O)[C@H]3COC(=O)[C@H]23)OCO4)cc(OC)c1O", "note": "(stereo partly drawn)", "values": [{"measurement": "TGI", "setting": "ACHN renal", "value": 1710, "unit": "nM"}, {"measurement": "GI50", "setting": "SW-620 colon", "value": 44.9, "unit": "nM"}, {"measurement": "TGI", "setting": "SW-620 colon", "value": 1350, "unit": "nM"}, {"measurement": "GI50", "setting": "BT-549 breast", "value": 75.8, "unit": "nM"}, {"measurement": "TGI", "setting": "BT-549 breast", "value": 537, "unit": "nM"}, {"measurement": "GI50", "setting": "SK-OV-3 ovarian", "value": 326, "unit": "nM"}, {"measurement": "TGI", "setting": "SK-OV-3 ovarian", "value": 2670, "unit": "nM"}, {"measurement": "GI50", "setting": "HOP-92 NSCLC", "value": 321, "unit": "nM"}, {"measurement": "TGI", "setting": "HOP-92 NSCLC", "value": 8750, "unit": "nM"}, {"measurement": "GI50", "setting": "SN12C renal", "value": 139, "unit": "nM"}, {"measurement": "TGI", "setting": "SN12C renal", "value": 665, "unit": "nM"}, {"measurement": "GI50", "setting": "MDA-MB-231 breast", "value": 171, "unit": "nM"}, {"measurement": "TGI", "setting": "MDA-MB-231 breast", "value": 599, "unit": "nM"}, {"measurement": "GI50", "setting": "MALME-3M melanoma", "value": 671, "unit": "nM"}, {"measurement": "TGI", "setting": "MALME-3M melanoma", "value": 3970, "unit": "nM"}, {"measurement": "GI50", "setting": "A549 NSCLC", "value": 173, "unit": "nM"}, {"measurement": "TGI", "setting": "A549 NSCLC", "value": 4080, "unit": "nM"}, {"measurement": "GI50", "setting": "T-47D breast", "value": 146, "unit": "nM"}, {"measurement": "TGI", "setting": "T-47D breast", "value": 27300, "unit": "nM"}, {"measurement": "GI50", "setting": "MDA-MB-435 melanoma", "value": 756, "unit": "nM"}, {"measurement": "TGI", "setting": "MDA-MB-435 melanoma", "value": 2430, "unit": "nM"}, {"measurement": "TGI", "setting": "HL-60(TB) leukemia", "value": 11.6, "unit": "nM"}, {"measurement": "TGI", "setting": "RPMI-8226 leukemia", "value": 161, "unit": "nM"}, {"measurement": "GI50", "setting": "SK-MEL-28 melanoma", "value": 321, "unit": "nM"}, {"measurement": "TGI", "setting": "SK-MEL-28 melanoma", "value": 1970, "unit": "nM"}, {"measurement": "GI50", "setting": "HT29 colon", "value": 236, "unit": "nM"}, {"measurement": "TGI", "setting": "HT29 colon", "value": 1230, "unit": "nM"}, {"measurement": "GI50", "setting": "HCT-116 colon", "value": 67.8, "unit": "nM"}, {"measurement": "TGI", "setting": "HCT-116 colon", "value": 2020, "unit": "nM"}, {"measurement": "GI50", "setting": "MCF7 breast", "value": 82.8, "unit": "nM"}, {"measurement": "TGI", "setting": "MCF7 breast", "value": 12200, "unit": "nM"}, {"measurement": "GI50", "setting": "SNB-75 CNS", "value": 327, "unit": "nM"}, {"measurement": "TGI", "setting": "SNB-75 CNS", "value": 1780, "unit": "nM"}, {"measurement": "GI50", "setting": "A498 renal", "value": 206, "unit": "nM"}, {"measurement": "TGI", "setting": "A498 renal", "value": 3510, "unit": "nM"}, {"measurement": "GI50", "setting": "LOX IMVI melanoma", "value": 169, "unit": "nM"}, {"measurement": "TGI", "setting": "LOX IMVI melanoma", "value": 1570, "unit": "nM"}, {"measurement": "GI50", "setting": "MDA-MB-468 breast", "value": 138, "unit": "nM"}, {"measurement": "TGI", "setting": "MDA-MB-468 breast", "value": 350, "unit": "nM"}, {"measurement": "GI50", "setting": "HCT-15 colon", "value": 170, "unit": "nM"}, {"measurement": "TGI", "setting": "HCT-15 colon", "value": 1390, "unit": "nM"}, {"measurement": "GI50", "setting": "SF-295 CNS", "value": 103, "unit": "nM"}, {"measurement": "TGI", "setting": "SF-295 CNS", "value": 490, "unit": "nM"}, {"measurement": "GI50", "setting": "OVCAR-3 ovarian", "value": 348, "unit": "nM"}, {"measurement": "TGI", "setting": "OVCAR-3 ovarian", "value": 2070, "unit": "nM"}, {"measurement": "GI50", "setting": "HOP-62 NSCLC", "value": 74.1, "unit": "nM"}, {"measurement": "TGI", "setting": "HOP-62 NSCLC", "value": 267, "unit": "nM"}, {"measurement": "GI50", "setting": "U251 glioblastoma", "value": 67.4, "unit": "nM"}, {"measurement": "TGI", "setting": "U251 glioblastoma", "value": 1200, "unit": "nM"}, {"measurement": "GI50", "setting": "OVCAR-8 ovarian", "value": 151, "unit": "nM"}, {"measurement": "TGI", "setting": "OVCAR-8 ovarian", "value": 1470, "unit": "nM"}, {"measurement": "GI50", "setting": "DU-145 prostate", "value": 212, "unit": "nM"}, {"measurement": "TGI", "setting": "DU-145 prostate", "value": 1210, "unit": "nM"}]}
